Experimental data: patent US8206756B2, “Herbal composition for inflammatory disorders” (Piramal Life Sciences Limited, priority 2005, dated 2012)
pIC50: −log10 of the molar value.

Assays:
[1] = test system: VCAM-1; assay: Cell-ELISA for adhesion molecule expression in HUVECs: VCAM-1; format: cell-based; details: Homo sapiens; TNF-α-induced surface expression, HUVEC
Method: The assay was designed on the basis of reference Transplantation, Vol 63(5), 759-764, 1997 with modifications.
Human Umbilical Vein Endothelial Cells (HUVECs) were obtained from Cascade Biologics and were maintained in M200 (Cascade Biologics, Portland, Oreg.) supplemented with low serum growth supplement (LSGS) at 37° C. in a 5% CO2 incubator. U937 cells (ATCC, Manassas, Va.) were grown in the RPMI 1640 medium supplemented with 10% FBS (Hyclone, Logan, Utah). Recombinant human TNFα, antibodies to VCAM-1, ICAM-1, E-Selectin were obtained from R&D Systems and LPS was obtained from Sigma (St. Louis, Mo.).
HUVECs were plated at […] in 96-well fibronectin-coated plates. The cells were stimulated with TNF-α (10 ng/ml) or LPS (1 μg/ml), 30 min after addition of test compound. After stimulation, cells (E-Selectin and ICAM-1) were fixed with paraformaldehyde in phosphate buffer saline (PBS). Non specific binding was blocked by 2% bovine serum albumin (BSA) in phosphate buffer saline (PBS) for 1 h, and the cells were incubated with primary antibody for 2 h. […] After washing, seven times, 3,3′5,5′-tetramethylbenzidine liquid substrate (TMB substrate) was added and the optical density of each well was determined at 450 nm using a microtitre plate reader (Spectramax, Molecular Devices, Calif.). […] Percent inhibition of the test sample compared to the control is evaluated. […]

[2] = test system: THP-1 cell adhesion to HUVECs; assay: Adhesion of THP-1 mononuclear cells to HUVEC monolayers; format: cell-based, human; details: for Fluorescence Intensity: TNF-α 1 ng/ml; for Fold of control: unstimulated DMSO control = 1, stimulated = 18
Method: Adhesion studies were performed with the promonocytic cell line THP-1, which has been established as a useful model for monocytes in adhesion studies in Circ. Res., 97, 236-243, 2005, with modifications. THP-1 cells were washed twice with labeling medium (M200 plus LSGS). THP-1 cells (6×10^5 cells per ml) were labeled with 10 μg/ml bis-carboxyethyl-carboxyfluorescein acetoxymethylester (a fluorescent probe, BCECF-AM; Sigma) for 30 min at RT. After quenching with 0.1% BSA, the pellet was resuspended in labeling medium. To evaluate monocyte adhesion, HUVEC monolayers treated with TNF-α (1 ng/ml) in the presence or absence of various concentrations of test sample. The media was removed, washed and labeled-THP-1-cells were added to the wells (6×10^4 cells per well) and incubated for 10 minutes at RT in the dark. After co incubation, the wells were washed, filled with lysis buffer (0.1% Triton-X in 1.5 M Tris buffer) and incubated for 30 min. The fluorescence was measured using a fluorescent reader (PolarStar Optima, BMG Labtech) at an excitation peak of 485 nm and an emission peak of 520 nm. Values are means±SEM, representing fluorescent adhesion data. BAY 11-7082 [(E)-3-(4-methylphenylsulfonyl)-2-propenenitrile] was used as a standard and DMSO as vehicle control.

[3] = test system: TNF-α; assay: TNF-α production by synovial cells from a RA patient; format: cell-based; details: Homo sapiens, Synovial cell, 10 hours
Method: Cytokine production by synovial cells obtained from a rheumatoid arthritis (RA) patient undergoing knee replacement surgery was measured according to the method described by Brennan, F. M. et al (The Lancet. July 29: 244-247, (1989)). The synovial membrane tissue was digested in DMEM (Gibco) containing 10% FBS, 100 U/ml penicillin and 100 μg/ml streptomycin, 4 mg/ml collagenase type I (Worthington), 1.5 μg/ml Dnase type I (Sigma) and 15 U/ml heparin and incubated at 37° C. for 3 hours. After incubation, the digested tissue was filtered through a 70-μm membrane and the cells washed 3 times in complete medium (DMEM with 10% FBS). The synovial cells were cultured at 1×10^6 cells/ml in presence/absence of the test sample for 10 hours. The supernatants were harvested by centrifugation and levels of the cytokines (TNF-α, IL-1β, IL-6, IL-8) measured by ELISA. To assess the cytotoxic effect of the plant extracts, the cellular viability test was performed using MTS reagent. The 50% inhibitory concentration (IC50) values were calculated by a nonlinear regression method using GraphPad software (Prism 3.03).
Effect on proinflammatory cytokines produced by synovial cells obtained from a RA patient was studied for compound 1 as described by procedure of example 8.

[4] = test system: Collagen-induced arthritis (CIA); assay: Collagen-induced arthritis (CIA) in DBA/1J mice; format: in vivo; details: compared to vehicle treated group; H&E and Safranin O staining
Method: Male DBA/1J mice, aged 8-10 weeks, were immunized with 200 μg Collagen Type II as an emulsion in Freund's Complete Adjuvant, by an intradermal injection at the base of the tail. Twenty-one days later, the mice were administered a booster shot of 100 μg Collagen Type II. A set of naïve mice was also maintained alongside. From Day 23 onwards, the mice were assessed for the onset of rheumatoid arthritis using the Articular Index as a parameter. Mice with a minimum hind paw score of 2 were inducted into the study. Extract of example 1 was administered at a dose of 400 mpk (Milligram per kilogram body weight) by oral route twice daily for 12 days. Compound 1 was administered at a dose of 50 mpk and 100 mpk. by oral route twice daily for 12 days. Enbrel (3 mg/kg) was used as a standard and was given subcutaneous once daily. Paw volume and articular index were recorded daily. The data was analysed for statistical significance. On termination of the experiment the paws of the mice were processed for histopathological evaluation. Beneficial effect of extract of example 1 and compound 1 on pathology of arthritic (CIA) DBA/1J mice was evaluated. Microscopy was carried out after Hematoxylin and Eosin staining as well as Safranin O staining of synovial joints.

C=C1C(=O)OC2C3=C(C)CCCC3(C)CCC12O (stereo not drawn) [Compound 1, 3a-hydroxy-5a,9-dimethyl-3-methylene-3a,4,5,5a,6,7,8,9b-octahydro-3H-naphtho[1,2-b]furan-2-one]
pIC50 [1]: 6.40 | Fluorescence Intensity ([2]; 0.1 μM): 33421 | Fold of control ([2]; 0.1 μM): 13 | Fluorescence Intensity ([2]; 0.3 μM): 34024 | Fold of control ([2]; 0.3 μM): 13 | Fluorescence Intensity ([2]; 1 μM): 10195 | Fold of control ([2]; 1 μM): 4 | Fluorescence Intensity ([2]; 3 μM): 5728 | Fold of control ([2]; 3 μM): 2 | TNF-α stimulated monocytic THP-1 cell adhesion to HUVECs ([2]; at 1 μM): inhibited | pIC50 [3]: 6.10 | Histopathological analysis of synovial joints [4]: beneficial effects in terms of reducing cartilage destruction, bone destruction and synovitis
